According to patent publication US20220073536A1 (Rigel Pharmaceuticals, Inc., priority 2003, published 2022):

Experiments:
[1] = system: cultured human mast cells (CHMC); assay: CHMC low cell density IgE activation: tryptase assay; format: cell-based; conditions: low cell density CHMC, IgE activation, tryptase
In short: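 CHMC were seeded at 1000–1500 cells/well in MT buffer and incubated 1 hr at 37 °C. They were then stimulated with anti-IgE for 30 min at 37 °C, with unstimulated wells as controls. Released tryptase in the supernatant was measured with a fluorogenic substrate after 30 min at room temperature.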

[2] = system: cultured human mast cells (CHMC); assay: CHMC low cell density ionomycin activation: tryptase assay; format: cell-based; conditions: low cell density CHMC, tryptase, 3 pt, read-out: LD Tryptase, CHMC, Iono, 3 pt
[3] = Homo sapiens, Mast cell, 3 pt, read-out: LD Tryptase, CHMC, IgE, 3 pt
[4] = Homo sapiens, Mast cell, 8 pt, read-out: LD Tryptase, CHMC, IgE, 8 pt
[5] = 3 pt, read-out: LD Tryptase, CHMC, IgE, 3 pt
[6] = 8 pt, read-out: LD Tryptase, CHMC, IgE, 8 pt

Row | IC50 [1, 3] [µM] | IC50 [1, 4] [µM] | IC50 ([2]; Homo sapiens, Mast cell) [µM] | IC50 [1, 5] [µM] | IC50 [2] [µM] | IC50 [1, 6] [µM] | SMILES
1 | < 10 | < 10 | < 10 | – | – | – | COc1cc(Nc2ncc(F)c(Nc3ccc4c(c3)N(C)C(=O)C(C)(C)O4)n2)cc(OC)c1 [Compound 397]
2 | – | – | – | < 10 | > 10 | – | CNC(=O)COc1cccc(Nc2ncc(F)c(N(C)c3cc(OC)cc(OC)c3)n2)c1 [Compound 398, N4-(3,5-Dimethoxyphenyl)-5-fluoro-N4-methyl-N2-[3-(N-methylamino)carbonylmethyleneoxyphenyl]-2,4-pyrimidinediamine]
3 | < 10 | – | > 10 | – | – | – | COc1cc(Nc2ncc(F)c(N(C)c3cc(OC)cc(OC)c3)n2)cc(OC)c1 [Compound 400]
4 | < 10 | – | < 10 | – | – | – | COC(=O)c1cc2cc(Nc3ncc(F)c(N(C)c4cc(OC)cc(OC)c4)n3)ccc2o1 [Compound 401]
5 | > 10 | – | > 10 | – | – | – | COc1cc(OC)cc(N(C)c2nc(Nc3ccc(OC)c(Cl)c3)ncc2F)c1 [Compound 404, N2-(3-Chloro-4-methoxyphenyl)-N4-(3,5-dimethoxyphenyl)-5-fluoro-N4-methyl-2,4-pyrimidinediamine]
6 | < 10 | – | > 10 | – | – | – | COc1cc(OC)cc(N(C)c2nc(Nc3ccc(Cl)c(OC)c3)ncc2F)c1 [Compound 405]
7 | < 10 | – | > 10 | – | – | – | CNC(=O)c1cc2cccc(Nc3ncc(F)c(N(C)c4cc(OC)cc(OC)c4)n3)c2[nH]1 [Compound 406, N4-(3,5-Dimethoxyphenyl)-5-fluoro-N4-methyl-N2-[2-(N-methylamino)carbonylindol-7-yl]-2,4-pyrimidinediamine]
8 | – | – | – | < 10 | > 10 | < 10 | COc1cc(Nc2ncc(F)c(Nc3ccc(OC(C)(C)C(=O)O)c(Cl)c3)n2)cc(OC)c1 [Compound 409, N4-[3-Chloro-4-(hydroxycarbonyl-1,1-dimethylmethyleneoxy)phenyl]-N2-(3,5-dimethoxyphenyl)-5-fluoro-2,4-pyrimidinediamine]
9 | – | – | – | < 10 | < 10 | < 10 | CCOC(=O)C(C)(C)Oc1ccc(Nc2nc(Nc3ccc(OC)c(Cl)c3)ncc2F)cc1Cl [Compound 410, N4-[3-Chloro-4-(ethoxycarbonyl-1,1-dimethylmethyleneoxy)phenyl]-N2-(3-chloro-4-methoxyphenyl)-5-fluoro-2,4-pyrimidinediamine]
10 | < 10 | < 10 | > 10 | – | – | – | CN(c1ccc2c(c1)OCCO2)c1nc(Nc2cccc(-c3cnco3)c2)ncc1F [Compound 411]
11 | < 10 | – | < 10 | – | – | – | CN(c1ccc2c(c1)OCCO2)c1nc(Nc2cccc(-c3ncco3)c2)ncc1F [Compound 412]
12 | < 10 | < 10 | > 10 | – | – | – | COc1ccc(Nc2nc(Nc3cc(C)cc(C)c3)ncc2F)cc1OC [Compound 413]
13 | < 10 | < 10 | > 10 | – | – | – | COc1cc(Nc2ncc(F)c(Nc3ccc(OC)c(OC)c3)n2)cc(OC)c1 [Compound 414, N2-(3,5-Dimethoxyphenyl)-N4-(3,4-dimethoxyphenyl)-5-fluoro-2,4-pyrimidinediamine]
14 | < 10 | < 10 | > 10 | – | – | – | CCOC(=O)c1cc2cccc(Nc3ncc(F)c(Nc4ccc(OC)c(OC)c4)n3)c2[nH]1 [Compound 415, N4-(3,4-Dimethoxyphenyl)-N2-[2-(ethoxycarbonyl)indol-7-yl]-5-fluoro-2,4-pyrimidinediamine]
15 | < 10 | – | > 10 | – | – | – | CN(c1ccc2c(c1)OCCO2)c1nc(Nc2ccc(-c3ncco3)cc2)ncc1F [Compound 416]
16 | > 10 | – | > 10 | – | – | – | COC(=O)CN(c1ccc2c(c1)OCCO2)c1nc(Cl)ncc1F [Compound 418]
17 | < 10 | < 10 | > 10 | – | – | – | COc1ccc(Nc2nc(Nc3cccc(-c4cnco4)c3)ncc2F)cc1OC [Compound 419, N4-(3,4-Dimethoxyphenyl)-5-fluoro-N2-[3-(oxazol-5-yl)phenyl]-2,4-pyrimidinediamine]
